Data taken from patent publication US6632805B1, “Methods for using water-stabilized organosilanes” (Emory University, priority 1996, dated 2003).

What was measured:
[1] = Solubility in water and other solvents
[2] = Stability in water judged by appearance of the preparation (clear/hazy)

SMILES	Appearance after addition to water containing pentaerythritol ([1]; water containing pentaerythritol, after standing overnight)	Solubility in water ([1]; water, no stabilizer)	Stability (appearance of the preparation) ([2]; initial pH 1.15, after 1 wk.)	Stability (appearance of the preparation) ([2]; initial pH 2.0, after 1 mo.)	Stability (appearance of the preparation) ([2]; initial pH 2.0, after 1 wk.)	Stability (appearance of the preparation) ([2]; initial pH 5.7, after 1 mo.)	Stability (appearance of the preparation) ([2]; initial pH 5.7, after 1 wk.)	Stability (appearance of the preparation) ([2]; initial pH 6.5, after 1 mo.)	Stability (appearance of the preparation) ([2]; initial pH 6.5, after 1 wk.)	Stability (appearance of the preparation) ([2]; initial pH 8.5, after 1 wk.)
CO[Si](CCCCl)(OC)OC [Chloropropyl trimethoxysilane]	clear solution	insoluble								
CCCCCCCCCCCCCCCCCC[N+](C)(C)CCC[Si](OC)(OC)OC.[Cl-] [none]			hazy	hazy	clear	hazy	clear	hazy	clear	hazy/gel
